The values below come from patent publication US20240366770A1, “DEGRADATION OF BRUTON'S TYROSINE KINASE (BTK) BY CONJUGATION OF BTK INHIBITORS WITH E3 LIGASE LIGAND AND METHODS OF USE” (BeiGene Switzerland GmbH, priority 2021, published 2024).

The test system of one assay is HEK-293 cells. Put plainly: HEK-293 cytotoxicity detection (CellTiter-Glo). In kind it is cell-based. Conditions: Homo sapiens; HEK-293 cells, 72 h incubation, CellTiter-Glo luminescence, IC50 of cell proliferation inhibition; read-out: HEK293. On the procedure:
HEK-293 cells were treated with compounds diluted in 0.2% DMSO, dilution was done according to the following protocol: (1) making 500× stock solution in DMSO from 5 mM by 4-fold dilution, total 8 doses were included; (2) making 2× solution in cell culture medium by transferring 0.5 ul 500× stock solution into 125 μl medium; (3) adding 50 μl of 2× solution to cells for incubation of 72 h.
25 μl of the CellTiter-Glo®Reagent [(Promega) -Cat No. G7572] was added to each well in the 96-well plate. The contents were mixed for 2 minutes on an orbital shaker to induce cell lysis. The plate was then allowed to incubate at room temperature for 10 minutes to stabilize luminescent signal. Luminescence was recorded on BMG PheraStar with luminescence protocol.
The IC50 value of a compound can be obtained by fitting the following equation
(§1) Wherein, X and Y are known values, and IC50, Hillslope, Top and Bottom are the parameters obtained by fitting with software. Y is the inhibition percentage (calculated from the equation), X is the concentration of the compound; IC50 is the concentration of the compound when the 50% inhibition is reached. The smaller the IC50 value is, the stronger the inhibitory ability of the compound is. Vice versa, the higher the IC50 value is, the weaker the ability the inhibitory ability of the compound is; Hillslope represents the slope of the fitted curve, generally around 1 *; Bottom represents the minimum value of the curve obtained by data fitting, which is generally 0%±20%; Top represents the maximum value of the curve obtained by data fitting, which is generally 100%±20%. The experimental data were fitted by calculating and analyzing with Dotmatics data analysis software.
For orientation: Cellular ATP, detected with luciferase, serves as a proxy for viable cell number.

For another assay, the target named is T1, BTK (Homo sapiens, UniProt Q06187).
T1 construct: High control=Cell group with added DMSO and without compound, indicating microplate readings without BTK degradation; endogenous in cells; host or cells: TMD-8
In words: BTK degradation in TMD-8 cells (HTRF assay). In kind it is cell-based. Particulars: 6 h treatment, IC50 (DC50) of BTK degradation. On the procedure:
TMD-8 cells were treated with compounds diluted in 0.2% DMSO, dilution was done according to the following protocol: (1) making 500× stock solution in DMSO from 1 mM by 6-fold dilution, total 8 doses were included; (2) making 2× solution in cell culture medium by transferring 0.5 μl 500× stock solution into 125 μl medium; (3) adding 15 μl of 2× solution to cells for incubation of 6 h.
After 6 h treatment, 10 μl 4× lysis buffer was added to each well; the plate was sealed and incubated for 30 min at room temperature on a plate shaker; Once the cells was lysed, 16 μL of cell lysate were transferred to a PE 384-well HTRF detection plate; 4 μL of pre-mixed HTRF antibodies were added to each well; the plate was covered with a plate sealer, and then spinned at 1000 rpm for 1 min, then incubated overnight at room temperature; the results were read on BMG PheraStar with HTRF protocol (337 nm-665 nm-620 nm).
The IC50 (DC50) value of a compound can be obtained by fitting the following equation
as §1, with “wherein,” for “Wherein,”
A general note: Time-resolved FRET reads energy transfer from a long-lived donor to a nearby acceptor.

Each structure is given as a SMILES string. A value given as a limit tells only on which side of the number the result lay.

T1 sequence (Q06187 whole entry): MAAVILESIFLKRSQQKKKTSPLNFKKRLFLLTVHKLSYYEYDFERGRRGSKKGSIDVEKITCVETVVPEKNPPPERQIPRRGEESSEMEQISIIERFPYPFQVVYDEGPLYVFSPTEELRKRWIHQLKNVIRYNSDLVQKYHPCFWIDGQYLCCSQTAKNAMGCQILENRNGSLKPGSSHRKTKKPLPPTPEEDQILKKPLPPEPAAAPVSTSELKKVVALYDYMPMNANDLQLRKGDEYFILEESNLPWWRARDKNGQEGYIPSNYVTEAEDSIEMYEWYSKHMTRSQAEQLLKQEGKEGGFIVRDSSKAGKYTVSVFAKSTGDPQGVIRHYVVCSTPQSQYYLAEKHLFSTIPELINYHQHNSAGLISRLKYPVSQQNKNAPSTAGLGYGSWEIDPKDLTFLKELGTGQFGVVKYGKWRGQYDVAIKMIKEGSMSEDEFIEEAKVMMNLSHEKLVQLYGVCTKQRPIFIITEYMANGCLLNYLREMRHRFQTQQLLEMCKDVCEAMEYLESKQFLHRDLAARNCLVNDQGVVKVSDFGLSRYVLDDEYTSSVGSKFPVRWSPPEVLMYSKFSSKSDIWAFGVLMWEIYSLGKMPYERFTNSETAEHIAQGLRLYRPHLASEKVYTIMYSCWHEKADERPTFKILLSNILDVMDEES

One may read the DC50 as the concentration at which degradation of the target reaches its halfway point. The low end stands for degradation at low concentration, the high end for degradation only at high concentration. With `Cc1c([C@@H](C)NC(=O)c2noc(C(C)(C)C)n2)ccc(-c2ncnc3[nH]c4cc(N5CCN(C6CCN(c7ccc(C8CCC(=O)NC8=O)cc7)CC6)CC5)ccc4c23)c1F` (stereo partly drawn) [Example 29, 5-(tert-butyl)-N-((1R)-1-(4-(7-(4-(1-(4-(2,6-dioxopiperidin-3-yl)phenyl)piperidin-4-yl)piperazin-1-yl)-9H-pyrimido[4,5-b]indol-4-yl)-3-fluoro-2-methylphenyl)ethyl)-1,2,4-oxadiazole-3-carboxamide], the IC50 with HEK-293 cells is > 10000 nM. The DC50 on BTK came to 3.16 nM.

Regarding `Cc1cc(-c2ncnc3[nH]c4cc(N5CCN(C6CC(c7ccc([C@H]8CCC(=O)NC8=O)cc7)C6)CC5)ccc4c23)c(F)cc1[C@@H](C)NC(=O)c1nc(C2(C)CC2)no1` (stereo partly drawn) [Example 96, N—((R)-1-(4-(7-(4-(3-(4-((R)-2,6-dioxopiperidin-3-yl)phenyl)cyclobutyl)piperazin-1-yl)-9H-pyrimido[4,5-b]indol-4-yl)-5-fluoro-2-methylphenyl)ethyl)-3-(1-methylcyclopropyl)-1,2,4-oxadiazole-5-carboxamide], in the assay with HEK-293 cells, the IC50 is > 10000 nM. The compound also yielded a DC50 on BTK of 2.98 nM.

Regarding `Cc1cc(-c2ncnc3[nH]c4cc(N5CCN(C6CC(c7ccc([C@@H]8CCC(=O)NC8=O)cc7)C6)CC5)ccc4c23)c(F)cc1[C@@H](C)NC(=O)c1nc(C(C)(C)C)no1` (stereo partly drawn) [Example 25, 3-(tert-butyl)-N—((R)-1-(4-(7-(4-(3-(4-((S)-2,6-dioxopiperidin-3-yl)phenyl)cyclobutyl)piperazin-1-yl)-9H-pyrimido[4,5-b]indol-4-yl)-5-fluoro-2-methylphenyl)ethyl)-1,2,4-oxadiazole-5-carboxamide], the IC50 in the assay on HEK-293 cells is > 10000 nM. The compound also came in with a DC50 on BTK of 0.872 nM.

As to `Cc1cc(-c2ncnc3[nH]c4cc(N5CCN(CC6CCN(c7ccc(N8CCC(=O)NC8=O)c(C)c7)CC6)CC5)ccc4c23)ccc1[C@@H](C)NC(=O)c1noc(C(C)(C)C)n1` [Example 22, (R)-5-(tert-butyl)-N-(1-(4-(7-(4-((1-(4-(2,4-dioxotetrahydropyrimidin-1(2H)-yl)-3-methylphenyl)piperidin-4-yl)methyl)piperazin-1-yl)-9H-pyrimido[4,5-b]indol-4-yl)-2-methylphenyl)ethyl)-1,2,4-oxadiazole-3-carboxamide], the IC50 in the assay on HEK-293 cells was > 10000 nM. Besides, the DC50 at BTK is 0.211 nM.

With `Cc1c([C@@H](C)NC(=O)c2noc(C(C)(C)C)n2)ccc(-c2ncnc3[nH]c4cc(N5CCN(C6CN(c7ccc(N8CCC(=O)NC8=O)cc7)C6)CC5)ccc4c23)c1F` [Example 63, (R)-5-(tert-butyl)-N-(1-(4-(7-(4-(1-(4-(2,4-dioxotetrahydropyrimidin-1(2H)-yl)phenyl)azetidin-3-yl)piperazin-1-yl)-9H-pyrimido[4,5-b]indol-4-yl)-3-fluoro-2-methylphenyl)ethyl)-1,2,4-oxadiazole-3-carboxamide], in the assay with HEK-293 cells, the IC50 was > 10000 nM. The same compound gave a DC50 at BTK of 6.82 nM.

`COc1cc2c(cc1N1CCN(Cc3ccc(SC4CCC(=O)NC4=O)cc3)CC1)[nH]c1ncnc(-c3ccc([C@@H](C)NC(=O)c4nc(C(C)(C)C)no4)c(C)c3)c12` (stereo partly drawn) [Example 75, 3-(tert-butyl)-N-((1R)-1-(4-(7-(4-(4-((2,6-dioxopiperidin-3-yl)thio)benzyl)piperazin-1-yl)-6-methoxy-9H-pyrimido[4,5-b]indol-4-yl)-2-methylphenyl)ethyl)-1,2,4-oxadiazole-5-carboxamide]: the IC50 with HEK-293 cells was > 10000 nM. Also, at BTK, the DC50 was > 2000 nM.

Consider `Cc1c([C@@H](C)NC(=O)c2nc(C3(C)CC3)no2)ccc(-c2ncnc3[nH]c4cc(N5CCN(C6CC(c7ccc([C@@H]8CCC(=O)NC8=O)cc7)C6)CC5)ccc4c23)c1F` (stereo partly drawn) [Example 65, N—((R)-1-(4-(7-(4-(3-(4-((S)-2,6-dioxopiperidin-3-yl)phenyl)cyclobutyl)piperazin-1-yl)-9H-pyrimido[4,5-b]indol-4-yl)-3-fluoro-2-methylphenyl)ethyl)-3-(1-methylcyclopropyl)-1,2,4-oxadiazole-5-carboxamide], for which, in the assay on HEK-293 cells, the IC50 was > 10000 nM. The compound also came in with a DC50 on BTK of 4.24 nM.
